{"source": "patent US10011590B2", "about": "“Crystalline forms of vilazodone hydrochloride and vilazodone free base” (DR. REDDY'S LABORATORIES LIMITED, priority 2012, dated 2018)", "experiment": "Effect of variation of water (and solvent) content on stability and PXRD pattern of the solid form", "type": "physicochemical", "conditions": "for effect of variation of water content on stability and PXRD pattern: variation of water content within the stated range", "data": [{"smiles": "Cl.N#Cc1ccc2[nH]cc(CCCCN3CCN(c4ccc5oc(C(N)=O)cc5c4)CC3)c2c1", "note": "[2-benzofurancarboxamide, 5-[4-[4-(5-cyano-1H-indol-3-yl)butyl]-1-piperazinyl]-, hydrochloride (1:1)]", "values": [{"measurement": "effect of variation of water content on stability and PXRD pattern", "value": "does not affect the stability and PXRD pattern"}]}, {"smiles": "Cl.N#Cc1ccc2[nH]cc(CCCCN3CCN(c4ccc5oc(C(N)=O)cc5c4)CC3)c2c1", "note": "[Form B, 2-benzofurancarboxamide, 5-[4-[4-(5-cyano-1H-indol-3-yl)butyl]-1-piperazinyl]-, hydrochloride (1:1)]", "values": [{"measurement": "effect of variation of water content on stability and PXRD pattern", "setting": "listed as crystalline form B of vilazodone hydrochloride", "value": "may not affect the stability and PXRD pattern"}]}, {"smiles": "Cl.N#Cc1ccc2[nH]cc(CCCCN3CCN(c4ccc5oc(C(N)=O)cc5c4)CC3)c2c1", "note": "[Form C, 2-benzofurancarboxamide, 5-[4-[4-(5-cyano-1H-indol-3-yl)butyl]-1-piperazinyl]-, hydrochloride (1:1)]", "values": [{"measurement": "effect of variation of water content on stability and PXRD pattern", "setting": "listed as vilazodone hydrochloride crystalline form C", "value": "may not affect the stability and PXRD pattern"}]}, {"smiles": "Cl.N#Cc1ccc2[nH]cc(CCCCN3CCN(c4ccc5oc(C(N)=O)cc5c4)CC3)c2c1", "note": "[Form D, 2-benzofurancarboxamide, 5-[4-[4-(5-cyano-1H-indol-3-yl)butyl]-1-piperazinyl]-, hydrochloride (1:1)]", "values": [{"measurement": "effect of variation of water and solvents on stability and PXRD pattern", "setting": "variation of water and solvent content of the mixed solvates", "value": "may not affect the stability and PXRD pattern"}]}, {"smiles": "N#Cc1ccc2[nH]cc(CCCCN3CCN(c4ccc5oc(C(N)=O)cc5c4)CC3)c2c1", "note": "[form I of vilazodone free base, vilazodone free base]", "values": [{"measurement": "effect of variation of water content on stability and PXRD pattern", "value": "does not affect the stability and PXRD pattern"}]}]}
